Assay results taken from ChEMBL document CHEMBL3885881, “DrugMatrix”.

Organism: Rattus norvegicus
Experiment: DrugMatrix - Regimen: Daily Repeat
Format: toxicity, organism-based, Sprague-Dawley
Set-up: regimen Daily Repeat, gender Male, age 6-8 weeks
Conditions: in vivo, iv, vehicle 100 % SALINE; for ABSOLUTE BASOPHIL / ABSOLUTE EOSINOPHIL / ABSOLUTE LYMPHOCYTE / ABSOLUTE MONOCYTE / ABSOLUTE SEGMENTED NEUTROPHIL / BASOPHIL / EOSINOPHIL / ERYTHROCYTE COUNT / HEMATOCRIT / HEMOGLOBIN / LEUKOCYTE COUNT / LYMPHOCYTE / MEAN CORPUSCULAR HEMOGLOBIN / MEAN CORPUSCULAR HEMOGLOBIN CONCENTRATION / MEAN CORPUSCULAR VOLUME / MONOCYTE / NEUTROPHIL / NUCLEATED RED BLOOD CELLS / PLATELET COUNT: tissue Blood; for ALANINE AMINOTRANSFERASE / ALBUMIN / ALKALINE PHOSPHATASE / ASPARTATE AMINOTRANSFERASE / BLOOD UREA NITROGEN / CARBON DIOXIDE / CHLORIDE / CHOLESTEROL / CREATINE PHOSPHOKINASE / CREATININE / GLUCOSE / LACTATE DEHYDROGENASE / LIPASE / PHOSPHORUS / POTASSIUM / SODIUM / TOTAL BILIRUBIN / TOTAL PROTEIN / URIC ACID: tissue Plasma
[1] = 0.4 mg/kg, 72 h, dose level Low, time 3 day
[2] = 0.4 mg/kg, 120 h, dose level Low, time 5 day
[3] = 4 mg/kg, 72 h, dose level High, time 3 day
[4] = 4 mg/kg, 120 h, dose level High, time 5 day

In the case of `CCCCN1CCCC[C@H]1C(=O)Nc1c(C)cccc1C` [LEVOBUPIVACAINE], the “ABSOLUTE BASOPHIL” value [1] is reported as 0 CELLS/uL, the “ABSOLUTE EOSINOPHIL” value [1] is reported as 254.67 CELLS/uL and the “ABSOLUTE LYMPHOCYTE” value [1] is reported as 15126.67 CELLS/uL. The “ABSOLUTE MONOCYTE” value [1] was 468.33 CELLS/uL, the “ABSOLUTE SEGMENTED NEUTROPHIL” value [1] was 1383.67 CELLS/uL and the BASOPHIL [1] was 0%. For the same molecule, the EOSINOPHIL [1] was 1.33%, the “ERYTHROCYTE COUNT” value [1] was 5.99 x10E6/uL and the HEMATOCRIT [1] was 37.7%. For the same molecule, the HEMOGLOBIN [1] was 13.83 G/DL, the “LEUKOCYTE COUNT” value [1] was 17.23 x10E3/uL and the LYMPHOCYTE [1] was 88.33%. The “MEAN CORPUSCULAR HEMOGLOBIN” value [1] was 23.17 pg, the “MEAN CORPUSCULAR HEMOGLOBIN CONCENTRATION” value [1] was 36.7 G/DL and the “MEAN CORPUSCULAR VOLUME” value [1] was 63.07 fL. For the same molecule, the MONOCYTE [1] was 2.67%, the NEUTROPHIL [1] was 7.67% and the “NUCLEATED RED BLOOD CELLS” value [1] was 0 /100WBC. For the same molecule, the “PLATELET COUNT” value [1] was 1404.67 x10E3/uL, the “ALANINE AMINOTRANSFERASE” value [1] was 48.33 u/L and the ALBUMIN [1] was 4.3 G/DL. The “ALKALINE PHOSPHATASE” value [1] was 344.33 u/L, the “ASPARTATE AMINOTRANSFERASE” value [1] was 82.67 u/L and the “BLOOD UREA NITROGEN” value [1] was 17.33 mg/dL. For the same molecule, the “CARBON DIOXIDE” value [1] was 22 mmol/L, the CHLORIDE [1] was 106 MEQ/L and the CHOLESTEROL [1] was 74 mg/dL. For the same molecule, the “CREATINE PHOSPHOKINASE” value [1] was 243 u/L, the CREATININE [1] was 0.23 mg/dL and the GLUCOSE [1] was 167.67 mg/dL. The “LACTATE DEHYDROGENASE” value [1] was 317 u/L, the LIPASE [1] was 9 u/L and the PHOSPHORUS [1] was 13.87 mg/dL. The POTASSIUM [1] was 6.74 MEQ/L, the SODIUM [1] was 148.9 MEQ/L and the “TOTAL BILIRUBIN” value [1] was 0.2 mg/dL. The “TOTAL PROTEIN” value [1] was 6.3 G/DL, the “URIC ACID” value [1] was 2.5 mg/dL and the “ABSOLUTE BASOPHIL” value [2] was 0 CELLS/uL. For the same molecule, the “ABSOLUTE EOSINOPHIL” value [2] was 140.33 CELLS/uL, the “ABSOLUTE LYMPHOCYTE” value [2] was 13101.33 CELLS/uL and the “ABSOLUTE MONOCYTE” value [2] was 294.33 CELLS/uL. For the same molecule, the “ABSOLUTE SEGMENTED NEUTROPHIL” value [2] was 1864 CELLS/uL, the BASOPHIL [2] was 0% and the EOSINOPHIL [2] was 1%. For the same molecule, the “ERYTHROCYTE COUNT” value [2] was 5.93 x10E6/uL, the HEMATOCRIT [2] was 37% and the HEMOGLOBIN [2] was 14 G/DL. The “LEUKOCYTE COUNT” value [2] was 15.4 x10E3/uL, the LYMPHOCYTE [2] was 85.33% and the “MEAN CORPUSCULAR HEMOGLOBIN” value [2] was 23.6 pg. For the same molecule, the “MEAN CORPUSCULAR HEMOGLOBIN CONCENTRATION” value [2] was 37.83 G/DL, the “MEAN CORPUSCULAR VOLUME” value [2] was 62.47 fL and the MONOCYTE [2] was 2%. For the same molecule, the NEUTROPHIL [2] was 11.67%, the “NUCLEATED RED BLOOD CELLS” value [2] was 0.33 /100WBC and the “PLATELET COUNT” value [2] was 1119 x10E3/uL. The “ALANINE AMINOTRANSFERASE” value [2] was 67.67 u/L, the ALBUMIN [2] was 4.13 G/DL and the “ALKALINE PHOSPHATASE” value [2] was 394 u/L. The “ASPARTATE AMINOTRANSFERASE” value [2] was 122.67 u/L, the “BLOOD UREA NITROGEN” value [2] was 20 mg/dL and the “CARBON DIOXIDE” value [2] was 24.67 mmol/L. The CHLORIDE [2] was 107.33 MEQ/L, the CHOLESTEROL [2] was 54.33 mg/dL and the “CREATINE PHOSPHOKINASE” value [2] was 430.33 u/L. For the same molecule, the CREATININE [2] was 0.2 mg/dL, the GLUCOSE [2] was 154.33 mg/dL and the “LACTATE DEHYDROGENASE” value [2] was 798.67 u/L. For the same molecule, the LIPASE [2] was 8.67 u/L, the PHOSPHORUS [2] was 13.03 mg/dL and the POTASSIUM [2] was 5.58 MEQ/L. The SODIUM [2] was 148.47 MEQ/L, the “TOTAL BILIRUBIN” value [2] was 0.1 mg/dL and the “TOTAL PROTEIN” value [2] was 6.2 G/DL. The “URIC ACID” value [2] was 1.57 mg/dL, the “ABSOLUTE BASOPHIL” value [3] was 0 CELLS/uL and the “ABSOLUTE EOSINOPHIL” value [3] was 0 CELLS/uL. For the same molecule, the “ABSOLUTE LYMPHOCYTE” value [3] was 11600.33 CELLS/uL, the “ABSOLUTE MONOCYTE” value [3] was 405 CELLS/uL and the “ABSOLUTE SEGMENTED NEUTROPHIL” value [3] was 1828 CELLS/uL. For the same molecule, the BASOPHIL [3] was 0%, the EOSINOPHIL [3] was 0% and the “ERYTHROCYTE COUNT” value [3] was 5.58 x10E6/uL. For the same molecule, the HEMATOCRIT [3] was 35.27%, the HEMOGLOBIN [3] was 13.37 G/DL and the “LEUKOCYTE COUNT” value [3] was 13.83 x10E3/uL. The LYMPHOCYTE [3] was 83.67%, the “MEAN CORPUSCULAR HEMOGLOBIN” value [3] was 23.93 pg and the “MEAN CORPUSCULAR HEMOGLOBIN CONCENTRATION” value [3] was 37.9 G/DL. The “MEAN CORPUSCULAR VOLUME” value [3] was 63.2 fL, the MONOCYTE [3] was 3% and the NEUTROPHIL [3] was 13.33%. The “NUCLEATED RED BLOOD CELLS” value [3] was 0.33 /100WBC, the “PLATELET COUNT” value [3] was 1307 x10E3/uL and the “ALANINE AMINOTRANSFERASE” value [3] was 41.33 u/L. For the same molecule, the ALBUMIN [3] was 4.27 G/DL, the “ALKALINE PHOSPHATASE” value [3] was 430.67 u/L and the “ASPARTATE AMINOTRANSFERASE” value [3] was 83.33 u/L. For the same molecule, the “BLOOD UREA NITROGEN” value [3] was 15.67 mg/dL, the “CARBON DIOXIDE” value [3] was 24.67 mmol/L and the CHLORIDE [3] was 105.67 MEQ/L. For the same molecule, the CHOLESTEROL [3] was 62 mg/dL, the “CREATINE PHOSPHOKINASE” value [3] was 275.67 u/L and the CREATININE [3] was 0.23 mg/dL. For the same molecule, the GLUCOSE [3] was 152 mg/dL, the “LACTATE DEHYDROGENASE” value [3] was 383 u/L and the LIPASE [3] was 8.67 u/L. It also gave a PHOSPHORUS [3] of 13.3 mg/dL, a POTASSIUM [3] of 6.04 MEQ/L and an SODIUM [3] of 146.8 MEQ/L. The “TOTAL BILIRUBIN” value [3] was 0.2 mg/dL, the “TOTAL PROTEIN” value [3] was 5.77 G/DL and the “URIC ACID” value [3] was 1.43 mg/dL. The “ABSOLUTE BASOPHIL” value [4] was 0 CELLS/uL, the “ABSOLUTE EOSINOPHIL” value [4] was 0 CELLS/uL and the “ABSOLUTE LYMPHOCYTE” value [4] was 14035 CELLS/uL. The “ABSOLUTE MONOCYTE” value [4] was 328 CELLS/uL, the “ABSOLUTE SEGMENTED NEUTROPHIL” value [4] was 2037 CELLS/uL and the BASOPHIL [4] was 0%. The EOSINOPHIL [4] was 0%, the “ERYTHROCYTE COUNT” value [4] was 5.6 x10E6/uL and the HEMATOCRIT [4] was 34.2%. For the same molecule, the HEMOGLOBIN [4] was 13.05 G/DL, the “LEUKOCYTE COUNT” value [4] was 16.4 x10E3/uL and the LYMPHOCYTE [4] was 85.5%. The “MEAN CORPUSCULAR HEMOGLOBIN” value [4] was 23.3 pg, the “MEAN CORPUSCULAR HEMOGLOBIN CONCENTRATION” value [4] was 38.15 G/DL and the “MEAN CORPUSCULAR VOLUME” value [4] was 61.1 fL. The MONOCYTE [4] was 2%, the NEUTROPHIL [4] was 12.5% and the “NUCLEATED RED BLOOD CELLS” value [4] was 0.5 /100WBC. The “PLATELET COUNT” value [4] was 1167 x10E3/uL, the “ALANINE AMINOTRANSFERASE” value [4] was 38 u/L and the ALBUMIN [4] was 4.35 G/DL. The “ALKALINE PHOSPHATASE” value [4] was 311 u/L, the “ASPARTATE AMINOTRANSFERASE” value [4] was 72.5 u/L and the “BLOOD UREA NITROGEN” value [4] was 18 mg/dL. The “CARBON DIOXIDE” value [4] was 26.5 mmol/L, the CHLORIDE [4] was 103 MEQ/L and the CHOLESTEROL [4] was 57.5 mg/dL. For the same molecule, the “CREATINE PHOSPHOKINASE” value [4] was 325.5 u/L, the CREATININE [4] was 0.17 mg/dL and the GLUCOSE [4] was 150.5 mg/dL. For the same molecule, the “LACTATE DEHYDROGENASE” value [4] was 321.5 u/L, the LIPASE [4] was 8 u/L and the PHOSPHORUS [4] was 13.4 mg/dL. The POTASSIUM [4] was 6.04 MEQ/L, the SODIUM [4] was 146.65 MEQ/L and the “TOTAL BILIRUBIN” value [4] was 0.1 mg/dL. For the same molecule, the “TOTAL PROTEIN” value [4] was 6.05 G/DL and the “URIC ACID” value [4] was 1.5 mg/dL.
